The record followed here is US20100022589A1, “PYRIDINE-3-CARBOXAMIDE COMPOUNDS AND THEIR USE FOR INHIBITING 11-BETA-HYDROXYSTEROID DEHYDROGENASE” (priority 2006, published 2010).

The target of the assay is T1, human 11βHSD1 enzyme (Homo sapiens, UniProt P28845).
T1 construct: N terminal 6-His tagged full length human 11βHSD1 enzyme; 6-His (N); made in house
The assay can be described thus: 11βHSD1 competitive HTRF assay (conversion of cortisone to cortisol). Conditions: for IC50: baculovirus expressed N terminal 6-His tagged full length human 11βHSD1, cortisone 160 nM, 25 minutes at 37° C.; for activity in the 11βHSD1 assay: at 30 μM. In kind it is biochemical. Here is the method:
The conversion of cortisone to the active steroid cortisol by 11βHSD1 oxo-reductase activity, can be measured using a competitive homogeneous time resolved fluorescence assay (HTRF) (CisBio International, R&D, Administration and Europe Office, In Vitro Technologies—HTRF®/Bioassays BP 84175, 30204 Bagnols/Cèze Cedex, France. Cortisol bulk HTRF kit: Cat No. 62CORPEC).
The evaluation of compounds described herein was carried out using a baculovirus expressed N terminal 6-His tagged full length human 11βHSD1 enzyme(*1). The enzyme was purified from a detergent solublised cell lysate, using a copper chelate column. Inhibitors of 11βHSD1 reduce the conversion of cortisone to cortisol, which is identified by an increase in signal, in the above assay.
Compounds to be tested were dissolved in dimethyl sulphoxide (DMSO) to 10 mM and diluted further in assay buffer containing 10% DMSO to 10 fold the final assay concentration. Diluted compounds were then plated into black 384 well plates (Matrix, Hudson N.H., USA).
The assay was carried out in a total volume of 20 μl consisting of cortisone (Sigma, Poole, Dorset, UK, 160 nM), glucose-6-phosphate (Roche Diagnostics, 1 mM), NADPH (Roche Diagnostics, 100 μM), glucose-6-phosphate dehydrogenase (Roche Diagnostics, 12.5 μg/ml), EDTA (Sigma, Poole, Dorset, UK, 1 mM), assay buffer (K2HPO4/KH2PO4, 100 mM) pH 7.5, recombinant 11βHSD1 (1.5 μg/ml) plus test compound. The assay plates were incubated for 25 minutes at 37° C. after which time the reaction was stopped by the addition of 10 μl of 0.5 mM glycerrhetinic acid plus cortisol-XL665. 10 μl of anti-cortisol Cryptate was then added and the plates sealed and incubated for 6 hours at room temperature. Fluorescence at 665 nm and 620 nm was measured and the 665 nm:620 nm ratio calculated using an Envision plate reader.
(In TR-FRET formats the signal depends on donor and acceptor labels being close together.)

T1 sequence (P28845 whole entry): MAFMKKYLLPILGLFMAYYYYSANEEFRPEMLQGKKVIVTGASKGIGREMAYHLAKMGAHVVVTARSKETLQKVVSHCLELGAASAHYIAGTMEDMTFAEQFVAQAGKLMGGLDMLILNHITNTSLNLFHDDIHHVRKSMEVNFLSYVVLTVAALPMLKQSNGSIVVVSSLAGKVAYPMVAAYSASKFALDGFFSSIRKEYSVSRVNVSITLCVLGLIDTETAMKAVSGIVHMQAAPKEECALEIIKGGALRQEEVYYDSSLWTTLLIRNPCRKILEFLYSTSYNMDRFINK

By IC50 is commonly meant the concentration needed to halve the response being measured. Read a high IC50 as weaker potency. On to `O=C(NC1CCCCC1)c1cccnc1SCCc1ccccc1` [Example 4, N-Cyclohexyl-2-phenethylsulfanyl-pyridine-3-carboxamide], for which the IC50 is 27 nM.

Turning to `O=C(NC1CCCCC1)c1ccc(C(F)(F)F)nc1SCCc1ccccc1` [N-cyclohexyl-2-(phenethylsulfanyl)-6-trifluoromethylpyridine-3-carboxamide], the “activity in the 11βHSD1 assay” value is “did not show activity”.

The compound `O=C(NC1CCCCC1)c1cccnc1SCCc1ccccn1` [Example 3, N-Cyclohexyl-2-(2-pyridin-2-ylethylsulfanyl)pyridine-3-carboxamide] displayed an IC50 of 890 nM.

For the compound `O=C(O)c1ccccc1CCSc1ncccc1C(=O)NC1CCCCC1` [N-cyclohexyl-2-[2-(2-carboxyphenyl)ethyl)sulfanyl]pyridine-3-carboxamide], the “activity in the 11βHSD1 assay” value is “did not show activity”.
